Reference: ChEMBL document CHEMBL3751798, “Targeting cancer cells with oleanolic and ursolic acid derived hydroxamates” (Bioorg Med Chem Lett, 2016)

Experiments:
[1] = Cytotoxicity against human 518A2 cells after 96 hrs by SRB assay; assay type: functional, cell-based; conditions: 518A2, 96 h
A2780 = assay: Cytotoxicity against human A2780 cells after 96 hrs by SRB assay; assay type: functional, cell-based; conditions: A2780, 96 h
A549 = assay: Cytotoxicity against human A549 cells after 96 hrs by SRB assay; assay type: functional, cell-based; conditions: A549, 96 h
FaDu = assay: Cytotoxicity against human FADU cells after 96 hrs by SRB assay; assay type: functional, cell-based
HT-29 = assay: Cytotoxicity against human HT-29 cells after 96 hrs by SRB assay; assay type: functional, cell-based; conditions: HT-29, 96 h
MCF7 = assay: Cytotoxicity against human MCF7 cells after 96 hrs by SRB assay; assay type: functional, cell-based; conditions: MCF7, 96 h
[2] = Cytotoxicity against mouse NIH/3T3 cells after 96 hrs by SRB assay; assay type: cell-based; conditions: NIH3T3, 96 h

## CON(C)C(=O)[C@]12CC[C@@H](C)[C@H](C)[C@H]1C1=CC[C@@H]3[C@@]4(C)CCC(=O)C(C)(C)[C@@H]4CC[C@@]3(C)[C@]1(C)CC2
[1]
  EC50: 15.5 µM
A2780
  EC50: 4.5 µM
A549
  EC50: 8.7 µM
FaDu
  EC50: 8.3 µM
HT-29
  EC50: 18.7 µM
MCF7
  EC50: 10.7 µM
[2]
  EC50: 18.5 µM

## CC(=O)O[C@H]1CC[C@]2(C)[C@H]3CC=C4[C@@H]5CC(C)(C)CC[C@]5(C(=O)N(C)O)CC[C@@]4(C)[C@]3(C)CC[C@H]2C1(C)C
[1]
  EC50: 9.4 µM
A2780
  EC50: 7.5 µM
A549
  EC50: 10.8 µM
FaDu
  EC50: 12.1 µM
HT-29
  EC50: 10.6 µM
MCF7
  EC50: 6.2 µM
[2]
  EC50: 12.3 µM

## CC(=O)O[C@H]1CC[C@]2(C)[C@H]3CC=C4[C@@H]5CC(C)(C)CC[C@]5(C(=O)NO)CC[C@@]4(C)[C@]3(C)CC[C@H]2C1(C)C
[1]
  EC50: 4.2 µM
A2780
  EC50: 2.6 µM
A549
  EC50: 3.1 µM
FaDu
  EC50: 10.6 µM
HT-29
  EC50: 4.9 µM
MCF7
  EC50: 9.5 µM
[2]
  EC50: 2.6 µM

## CON(C)C(=O)[C@]12CCC(C)(C)C[C@H]1C1=CC[C@@H]3[C@@]4(C)CC[C@H](OC(C)=O)C(C)(C)[C@@H]4CC[C@@]3(C)[C@]1(C)CC2
[1]
  EC50: 8.4 µM
A2780
  EC50: 6.8 µM
A549
  EC50: 17.6 µM
FaDu
  EC50: 9.4 µM
HT-29
  EC50: 13.1 µM
MCF7
  EC50: 7.5 µM
[2]
  EC50: 13.3 µM

## CON(C)C(=O)[C@]12CCC(C)(C)C[C@H]1C1=CC[C@@H]3[C@@]4(C)CCC(=O)C(C)(C)[C@@H]4CC[C@@]3(C)[C@]1(C)CC2
[1]
  EC50: 20.9 µM
A2780
  EC50: 8.8 µM
A549
  EC50: 5.6 µM
FaDu
  EC50: 24.3 µM
HT-29
  EC50: 15.6 µM
MCF7
  EC50: 16.4 µM
[2]
  EC50: 13.7 µM

## CONC(=O)[C@]12CC[C@@H](C)[C@H](C)[C@H]1C1=CC[C@@H]3[C@@]4(C)CC[C@H](O)C(C)(C)[C@@H]4CC[C@@]3(C)[C@]1(C)CC2
[1]
  EC50: 14.3 µM
A2780
  EC50: 12.1 µM
A549
  EC50: 8.3 µM
FaDu
  EC50: 11.2 µM
HT-29
  EC50: 15.4 µM
MCF7
  EC50: 10 µM
[2]
  EC50: 16.2 µM

## C[C@H]1[C@H](C)CC[C@]2(C(=O)N(C)O)CC[C@]3(C)C(=CC[C@@H]4[C@@]5(C)CC[C@H](O)C(C)(C)[C@@H]5CC[C@]43C)[C@H]12
[1]
  EC50: 12.5 µM
A2780
  EC50: 4.5 µM
A549
  EC50: 9.7 µM
FaDu
  EC50: 15.1 µM
HT-29
  EC50: 12.3 µM
MCF7
  EC50: 15.4 µM
[2]
  EC50: 10.1 µM

## CONC(=O)[C@]12CC[C@@H](C)[C@H](C)[C@H]1C1=CC[C@@H]3[C@@]4(C)CCC(=O)C(C)(C)[C@@H]4CC[C@@]3(C)[C@]1(C)CC2
[1]
  EC50: 12.9 µM
A2780
  EC50: 14.3 µM
A549
  EC50: 9.2 µM
FaDu
  EC50: 12 µM
HT-29
  EC50: 12.9 µM
MCF7
  EC50: 11.2 µM
[2]
  EC50: 14.3 µM

## CC(=O)O[C@H]1CC[C@]2(C)[C@H]3CC=C4[C@@H]5[C@@H](C)[C@H](C)CC[C@]5(C(=O)NO)CC[C@@]4(C)[C@]3(C)CC[C@H]2C1(C)C
[1]
  EC50: 3.6 µM
A2780
  EC50: 2.7 µM
A549
  EC50: 3.9 µM
FaDu
  EC50: 6.4 µM
HT-29
  EC50: 3.5 µM
MCF7
  EC50: 3.3 µM
[2]
  EC50: 2.5 µM

## C[C@H]1[C@H](C)CC[C@]2(C(=O)NO)CC[C@]3(C)C(=CC[C@@H]4[C@@]5(C)CC[C@H](O)C(C)(C)[C@@H]5CC[C@]43C)[C@H]12
[1]
  EC50: 9.4 µM
A2780
  EC50: 4.6 µM
A549
  EC50: 6.7 µM
FaDu
  EC50: 18.1 µM
HT-29
  EC50: 7.5 µM
MCF7
  EC50: 13.1 µM
[2]
  EC50: 5.5 µM

## CN(O)C(=O)[C@]12CCC(C)(C)C[C@H]1C1=CC[C@@H]3[C@@]4(C)CCC(=O)C(C)(C)[C@@H]4CC[C@@]3(C)[C@]1(C)CC2
[1]
  EC50: 12.9 µM
A2780
  EC50: 4.8 µM
A549
  EC50: 8.1 µM
FaDu
  EC50: 14.1 µM
HT-29
  EC50: 11.9 µM
MCF7
  EC50: 16.4 µM
[2]
  EC50: 9.2 µM

## CONC(=O)[C@]12CCC(C)(C)C[C@H]1C1=CC[C@@H]3[C@@]4(C)CCC(=O)C(C)(C)[C@@H]4CC[C@@]3(C)[C@]1(C)CC2
[1]
  EC50: 17.7 µM
A2780
  EC50: 6.1 µM
A549
  EC50: 4.8 µM
FaDu
  EC50: 23.1 µM
HT-29
  EC50: 18.6 µM
MCF7
  EC50: 20 µM
[2]
  EC50: 12.2 µM

## CON(C)C(=O)[C@]12CC[C@@H](C)[C@H](C)[C@H]1C1=CC[C@@H]3[C@@]4(C)CC[C@H](O)C(C)(C)[C@@H]4CC[C@@]3(C)[C@]1(C)CC2
[1]
  EC50: 22.9 µM
A2780
  EC50: 21.8 µM
A549
  EC50: 11.6 µM
FaDu
  EC50: 26.8 µM
HT-29
  EC50: 18.4 µM
MCF7
  EC50: 18.7 µM
[2]
  EC50: 23.3 µM

## CON(C)C(=O)[C@]12CC[C@@H](C)[C@H](C)[C@H]1C1=CC[C@@H]3[C@@]4(C)CC[C@H](OC(C)=O)C(C)(C)[C@@H]4CC[C@@]3(C)[C@]1(C)CC2
[1]
  EC50: 12.7 µM
A2780
  EC50: 9.8 µM
A549
  EC50: 9.6 µM
FaDu
  EC50: 15 µM
HT-29
  EC50: 17.6 µM
MCF7
  EC50: 15.4 µM
[2]
  EC50: 23 µM

## CC(=O)O[C@H]1CC[C@]2(C)[C@H]3CC=C4[C@@H]5[C@@H](C)[C@H](C)CC[C@]5(C(=O)N(C)O)CC[C@@]4(C)[C@]3(C)CC[C@H]2C1(C)C
[1]
  EC50: 8.4 µM
A2780
  EC50: 6.5 µM
A549
  EC50: 5.7 µM
FaDu
  EC50: 11.3 µM
HT-29
  EC50: 8.7 µM
MCF7
  EC50: 7.9 µM
[2]
  EC50: 6.6 µM

## CONC(=O)[C@]12CC[C@@H](C)[C@H](C)[C@H]1C1=CC[C@@H]3[C@@]4(C)CC[C@H](OC(C)=O)C(C)(C)[C@@H]4CC[C@@]3(C)[C@]1(C)CC2
[1]
  EC50: 15.5 µM
A2780
  EC50: 10.6 µM
A549
  EC50: 6.6 µM
FaDu
  EC50: 12.1 µM
HT-29
  EC50: 13.2 µM
MCF7
  EC50: 6.8 µM
[2]
  EC50: 14.8 µM

## CC1(C)CC[C@]2(C(=O)NO)CC[C@]3(C)C(=CC[C@@H]4[C@@]5(C)CC[C@H](O)C(C)(C)[C@@H]5CC[C@]43C)[C@@H]2C1
[1]
  EC50: 5.5 µM
A2780
  EC50: 3.4 µM
A549
  EC50: 4.7 µM
FaDu
  EC50: 8.2 µM
HT-29
  EC50: 4.7 µM
MCF7
  EC50: 8.2 µM
[2]
  EC50: 4.3 µM

## CONC(=O)[C@]12CCC(C)(C)C[C@H]1C1=CC[C@@H]3[C@@]4(C)CC[C@H](O)C(C)(C)[C@@H]4CC[C@@]3(C)[C@]1(C)CC2
[1]
  EC50: 12.8 µM
A2780
  EC50: 12.3 µM
A549
  EC50: 20.9 µM
FaDu
  EC50: 14.3 µM
HT-29
  EC50: 18.8 µM
MCF7
  EC50: 17 µM
[2]
  EC50: 18.2 µM

## CONC(=O)[C@]12CCC(C)(C)C[C@H]1C1=CC[C@@H]3[C@@]4(C)CC[C@H](OC(C)=O)C(C)(C)[C@@H]4CC[C@@]3(C)[C@]1(C)CC2
[1]
  EC50: 14.2 µM
A2780
  EC50: 10.8 µM
A549
  EC50: 18.6 µM
FaDu
  EC50: 12.3 µM
HT-29
  EC50: 17.5 µM
MCF7
  EC50: 9.1 µM
[2]
  EC50: 13.2 µM

## C[C@H]1[C@H](C)CC[C@]2(C(=O)N(C)O)CC[C@]3(C)C(=CC[C@@H]4[C@@]5(C)CCC(=O)C(C)(C)[C@@H]5CC[C@]43C)[C@H]12
[1]
  EC50: 12.4 µM
A2780
  EC50: 4 µM
A549
  EC50: 9.3 µM
FaDu
  EC50: 17.6 µM
HT-29
  EC50: 12.8 µM
MCF7
  EC50: 17.6 µM
[2]
  EC50: 10.5 µM

## CN(O)C(=O)[C@]12CCC(C)(C)C[C@H]1C1=CC[C@@H]3[C@@]4(C)CC[C@H](O)C(C)(C)[C@@H]4CC[C@@]3(C)[C@]1(C)CC2
[1]
  EC50: 11.6 µM
A2780
  EC50: 3.9 µM
A549
  EC50: 9.8 µM
FaDu
  EC50: 5.8 µM
HT-29
  EC50: 8.7 µM
MCF7
  EC50: 8.3 µM
[2]
  EC50: 11.1 µM

## CON(C)C(=O)[C@]12CCC(C)(C)C[C@H]1C1=CC[C@@H]3[C@@]4(C)CC[C@H](O)C(C)(C)[C@@H]4CC[C@@]3(C)[C@]1(C)CC2
[1]
  EC50: 3.3 µM
A2780
  EC50: 3.4 µM
A549
  EC50: 11.8 µM
FaDu
  EC50: 29.8 µM
HT-29
  EC50: 5.6 µM
MCF7
  EC50: 16.2 µM
[2]
  EC50: 20.4 µM

## C=C(C)[C@@H]1CC[C@]2(C(=O)O)CC[C@]3(C)[C@H](CC[C@@H]4[C@@]5(C)CC[C@H](O)C(C)(C)[C@@H]5CC[C@]43C)[C@@H]12 [BETULINIC ACID]
[1]
  EC50: 9.4 µM
FaDu
  EC50: 15.3 µM
HT-29
  EC50: 14.4 µM

## CC1(C)CC[C@]2(C(=O)O)CC[C@]3(C)C(=CC[C@@H]4[C@@]5(C)CC[C@H](O)C(C)(C)[C@@H]5CC[C@]43C)[C@@H]2C1 [OLEANOLIC_ACID]
[1]
  EC50: 64.3 µM
A2780
  EC50: 14 µM
A549
  EC50: 72.3 µM
FaDu
  EC50: 75.4 µM
HT-29
  EC50: 38.8 µM
MCF7
  EC50: 80 µM
[2]
  EC50: 76.4 µM

## C[C@H]1[C@H](C)CC[C@]2(C(=O)O)CC[C@]3(C)C(=CC[C@@H]4[C@@]5(C)CC[C@H](O)C(C)(C)[C@@H]5CC[C@]43C)[C@H]12 [URSOLIC ACID]
A2780
  EC50: 11.7 µM
FaDu
  EC50: 14.2 µM
[2]
  EC50: 18.7 µM
